# “Also recorded” adds a separate entry of the source.
# Key:
# Format in all cases: cell-based
# [1] = biological target: T1, OR10G7 (Homo sapiens, UniProt Q8NGN6, T5S); experiment: Ligand-induced OR-dependent puromycin resistance, OR10G7 cells; conditions: HEK293T, pGL4.29-CRE-Puro-Hygro-OR with OR10G7; musk ketone 10 μM, eugenol or isoeugenol 1 μM, ultravanil or vanitrope 100 μM; puromycin 0.015-16 μg/ml; PrestoBlue viability day 4
# T1 construct: expressed in transfected cells
# T1 sequence (Q8NGN6 1-311 T5S): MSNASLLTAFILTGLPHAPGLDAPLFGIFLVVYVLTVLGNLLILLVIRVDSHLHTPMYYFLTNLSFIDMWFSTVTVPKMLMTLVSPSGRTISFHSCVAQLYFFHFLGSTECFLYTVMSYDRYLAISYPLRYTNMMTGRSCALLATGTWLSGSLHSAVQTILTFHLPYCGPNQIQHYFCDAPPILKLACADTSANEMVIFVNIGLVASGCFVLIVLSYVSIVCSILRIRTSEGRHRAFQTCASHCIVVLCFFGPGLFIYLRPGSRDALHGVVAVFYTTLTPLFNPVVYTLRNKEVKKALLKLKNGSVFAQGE
# Description: (§1) Stable clones selected with hygromycin containing a stable insertion of the pGL4.29-CRE-Puro-Hygro-OR construct described in Example 1 with either one of the receptors OR10G7, OR10G9 or OR5AN1 (NCBI Genbank Gene ID 390265, 219870 and 390195) were plated at a density of 3000 cells/per well in 200 μl Dubelcco's Modified Eagle medium (DMEM) in polyethyleneimide-coated, white 96 well microtiter plates with a transparent bottom. After cells were allowed to adhere for 24 h, they were exposed to different odorants (musk ketone at 10 μM, eugenol or isoeugenol at 1 μM, ultravanil or vanitrope at 100 μM). 7 h after odorant addition, 100 μl of the medium was removed and replaced with fresh medium with the same odorant concentrations and, in addition, puromycin to reach a final concentration of 0.015-16 μg/ml in 11 twofold dilution steps (day 1 of selection). On day 2 and 3, 100 μl of the medium was again removed and replaced with fresh medium with the same concentration of odorant and puromycin. On day 4 of the selection, medium from each well was removed completely, 100 ul PrestoBlue® cell viability reagent (ThermoFisher Scientific, Catalog No: 14200-083) diluted in phosphate buffered saline was added to each well and cells were incubated at 37° C. until a color change was visible in the wells containing no puromycin. The fluorescence was determined at 560 excitation and 590 nm emission to assess relative cell metabolic activity, which is the net result of cell growth and cell killing in presence of the different puromycin concentrations. The result was expressed as % viability relative to controls with no cells (0%) and cells treated with olfactory ligand only (100%).
# [2] = biological target: T2, OR5AN1 (Homo sapiens, UniProt Q8NGI8); experiment: Ligand-induced OR-dependent puromycin resistance, OR5AN1 cells; conditions: HEK293T, pGL4.29-CRE-Puro-Hygro-OR with OR5AN1; musk ketone 10 μM, eugenol or isoeugenol 1 μM, ultravanil 100 μM; puromycin 0.015-16 μg/ml; PrestoBlue viability day 4
# T2 construct: expressed in transfected cells
# T2 sequence (Q8NGI8 1-311): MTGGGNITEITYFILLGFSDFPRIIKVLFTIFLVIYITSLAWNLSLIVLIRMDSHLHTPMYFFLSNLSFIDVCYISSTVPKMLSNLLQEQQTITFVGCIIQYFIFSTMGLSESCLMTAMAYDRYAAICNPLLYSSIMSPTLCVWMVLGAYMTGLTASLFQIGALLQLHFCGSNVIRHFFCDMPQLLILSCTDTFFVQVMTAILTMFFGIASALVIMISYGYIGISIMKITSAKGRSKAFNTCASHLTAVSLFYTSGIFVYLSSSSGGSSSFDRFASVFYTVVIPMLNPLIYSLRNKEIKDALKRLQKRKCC
# Description: as §1
# [3] = biological target: T3, OR10G9 (Homo sapiens, UniProt Q8NGN4); experiment: Ligand-induced OR-dependent puromycin resistance, OR10G9 cells; conditions: HEK293T, pGL4.29-CRE-Puro-Hygro-OR with OR10G9; musk ketone 10 μM, eugenol or isoeugenol 1 μM, ultravanil or vanitrope 100 μM; puromycin 0.015-16 μg/ml; PrestoBlue viability day 4
# T3 construct: expressed in transfected cells
# T3 sequence (Q8NGN4 1-311): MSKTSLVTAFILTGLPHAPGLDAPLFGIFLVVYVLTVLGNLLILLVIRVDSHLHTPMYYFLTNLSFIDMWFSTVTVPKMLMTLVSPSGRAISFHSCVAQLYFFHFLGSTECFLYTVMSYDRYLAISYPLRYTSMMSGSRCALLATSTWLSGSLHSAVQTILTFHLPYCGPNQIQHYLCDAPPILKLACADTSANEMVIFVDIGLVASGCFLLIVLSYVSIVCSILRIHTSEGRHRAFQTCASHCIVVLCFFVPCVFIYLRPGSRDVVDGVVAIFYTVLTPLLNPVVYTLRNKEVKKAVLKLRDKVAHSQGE
# Description: as §1
SMILES,puromycin resistance in presence of odorant versus solvent control [1],puromycin resistance in presence of odorant versus solvent control [2],puromycin resistance in presence of odorant versus solvent control [3]
C=CCc1ccc(O)c(OC)c1 [eugenol],increased resistance to puromycin; also recorded: strongly enhanced puromycin resistance,do not increase resistance over solvent control; also recorded: the resistance was equal to the solvent control,no increased resistance
CC(=O)c1c(C)c([N+](=O)[O-])c(C(C)(C)C)c([N+](=O)[O-])c1C [musk ketone],does not increase resistance over solvent control; also recorded: no induced puromycin resistance over solvent control,increased resistance to puromycin; also recorded: enhanced puromycin resistance,no increased resistance
